target: Polθ theta (1-899) (hPolQ) (Homo sapiens (Human), UniProt O75417); assay: Biological Assay 1: Polθ ATPase activity, NADH oxidation-coupled enzymatic assay (10 nM enzyme, 30 min); type: biochemical; settings: Polθ (1-899) 10 nM, 100 μM ATP, 300 nM dT50 ssDNA; Examples 1 to 268; read-out: ATPase NADH coupling:Standard Screening:hPolQ IC50
In short: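 Polθ (1-899) at 10 nM was preincubated with compound for 15 min at room temperature in 20 mM Tris pH 7.80, 80 mM KCl, 10 mM MgCl2. An equal volume of 100 μM ATP, 300 nM dT50 ssDNA and a PK/LDH–NADH coupling system was then added. A340 was read each minute for 30 min. IC50 came from rate slopes over 10-point series with a four-parameter fit.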

Sequence of Polθ theta (1-899) (hPolQ) (O75417 1-899): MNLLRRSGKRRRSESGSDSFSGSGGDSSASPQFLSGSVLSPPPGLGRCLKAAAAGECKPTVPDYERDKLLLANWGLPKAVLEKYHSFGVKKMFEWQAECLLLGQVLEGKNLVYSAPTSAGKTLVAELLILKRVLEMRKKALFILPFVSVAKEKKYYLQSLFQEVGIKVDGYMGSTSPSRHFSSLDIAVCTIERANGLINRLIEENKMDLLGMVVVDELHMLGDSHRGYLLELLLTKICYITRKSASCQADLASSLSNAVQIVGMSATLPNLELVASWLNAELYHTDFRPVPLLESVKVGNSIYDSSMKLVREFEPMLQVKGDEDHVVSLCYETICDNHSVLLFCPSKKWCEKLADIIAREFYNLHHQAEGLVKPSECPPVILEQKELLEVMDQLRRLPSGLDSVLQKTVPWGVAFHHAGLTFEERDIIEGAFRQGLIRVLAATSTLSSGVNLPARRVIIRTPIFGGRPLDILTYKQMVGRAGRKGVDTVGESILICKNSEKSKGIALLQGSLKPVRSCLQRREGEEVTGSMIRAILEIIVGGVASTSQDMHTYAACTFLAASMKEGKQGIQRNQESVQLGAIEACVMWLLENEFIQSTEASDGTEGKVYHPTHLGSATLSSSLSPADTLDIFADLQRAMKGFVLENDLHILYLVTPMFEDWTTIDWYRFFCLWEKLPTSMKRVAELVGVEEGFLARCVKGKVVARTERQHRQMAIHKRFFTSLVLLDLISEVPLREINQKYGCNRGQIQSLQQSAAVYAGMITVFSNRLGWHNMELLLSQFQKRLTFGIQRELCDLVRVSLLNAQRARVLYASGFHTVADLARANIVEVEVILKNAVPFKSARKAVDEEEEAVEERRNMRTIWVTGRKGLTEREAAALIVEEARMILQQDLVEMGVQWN

IC50 [nM]	Structure (SMILES)
≤ 200	COc1cnc(C)cc1-c1cc(C)ncc1C(=O)Nc1nnc(OCc2cnc(CO)cn2)s1 [Example 146, N-(5-((5-(hydroxymethyl)pyrazin-2-yl)methoxy)-1,3,4-thiadiazol-2-yl)-5′-methoxy-2′,6-dimethyl-[4,4′-bipyridine]-3-carboxamide]
≤ 200	COc1ccc(Cl)cc1-c1cc(C)ncc1C(=O)Nc1nnc(OCc2ccc([S@](C)(=N)=O)cn2)s1 [Example 147, (R)-4-(5-chloro-2-methoxyphenyl)-6-methyl-N-(5-((5-(S-methylsulfonimidoyl)pyridin-2-yl)methoxy)-1,3,4-thiadiazol-2-yl)nicotinamide]
≤ 200	COc1ccc(Cl)cc1-c1cc(C)ncc1C(=O)Nc1nnc(OCc2ccc([S@@](C)(=N)=O)cn2)s1 [Example 148, (S)-4-(5-chloro-2-methoxyphenyl)-6-methyl-N-(5-((5-(S-methylsulfonimidoyl)pyridin-2-yl)methoxy)-1,3,4-thiadiazol-2-yl)nicotinamide]
≤ 200	COc1cccc(F)c1-c1cc(C)ncc1C(=O)Nc1nnc(OCc2ccc([S@](C)(=N)=O)cn2)s1 [Example 149, 4-(2-fluoro-6-methoxyphenyl)-6-methyl-N-(5-((5-((R)—S-methylsulfonimidoyl)pyridin-2-yl)methoxy)-1,3,4-thiadiazol-2-yl)nicotinamide]
≤ 200	COc1cccc(F)c1-c1cc(C)ncc1C(=O)Nc1nnc(OCc2ccc([S@@](C)(=N)=O)cn2)s1 [Example 150, 4-(2-fluoro-6-methoxyphenyl)-6-methyl-N-(5-((5-((S)—S-methylsulfonimidoyl)pyridin-2-yl)methoxy)-1,3,4-thiadiazol-2-yl)nicotinamide]
≤ 200	COc1cnc(Cl)cc1-c1cc(C)ncc1C(=O)Nc1nnc(OCc2ccc3c(n2)CCOC3)s1 [Example 151, 2′-chloro-5′-methoxy-6-methyl-N-(5-(5H,7H,8H-pyrano(4,3-b)pyridin-2-ylmethoxy)-1,3,4-thiadiazol-2-yl)-(4,4′-bipyridine)-3-carboxamide]
≤ 200	CN=[S@@](C)(=O)c1ccc(COc2nnc(NC(=O)c3cnc(C)cc3-c3cc(Cl)ccc3OC)s2)nc1 [Example 152, (S)-4-(5-chloro-2-methoxyphenyl)-N-(5-((5-(N,S-dimethylsulfonimidoyl)pyridin-2-yl)methoxy)-1,3,4-thiadiazol-2-yl)-6-methylnicotinamide]
≤ 200	COc1cnc(Cl)cc1-c1cc(C)ncc1C(=O)Nc1nnc(OCC2CCC(F)(F)CC2)s1 [Example 153, 2′-chloro-N-(5-((4,4-difluorocyclohexyl)methoxy)-1,3,4-thiadiazol-2-yl)-5′-methoxy-6-methyl-(4,4′-bipyridine)-3-carboxamide]
≤ 200	CN=[S@](C)(=O)c1ccc(COc2nnc(NC(=O)c3cnc(C)cc3-c3c(F)cccc3OC)s2)cc1 [Example 154, N-(5-((4-((R)—N,S-dimethylsulfonimidoyl)benzyl)oxy)-1,3,4-thiadiazol-2-yl)-4-(2-fluoro-6-methoxyphenyl)-6-methylnicotinamide]
≤ 200	CN=[S@@](C)(=O)c1ccc(COc2nnc(NC(=O)c3cnc(C)cc3-c3c(F)cccc3OC)s2)cc1 [Example 155, N-(5-((4-((S)—N,S-dimethylsulfonimidoyl)benzyl)oxy)-1,3,4-thiadiazol-2-yl)-4-(2-fluoro-6-methoxyphenyl)-6-methylnicotinamide]
≤ 200	COc1cnc(Cl)cc1-c1cc(C)ncc1C(=O)Nc1nnc(OCC2CC3CC2CN3C(=O)C(C)C)s1 (centres unmarked) [Example 156, 2′-chloro-N-(5-((2-isobutyryl-2-azabicyclo[2.2.1]heptan-5-yl)methoxy)-1,3,4-thiadiazol-2-yl)-5′-methoxy-6-methyl-[4,4′-bipyridine]-3-carboxamide]
≤ 200	COc1cccc(F)c1-c1cc(C)ncc1C(=O)Nc1nnc(OCC2CCS(=O)(=O)CC2)s1 [Example 158, N-(5-((1,1-dioxidotetrahydro-2H-thiopyran-4-yl)methoxy)-1,3,4-thiadiazol-2-yl)-4-(2-fluoro-6-methoxyphenyl)-6-methylnicotinamide]
≤ 200	COc1cnc(Cl)cc1-c1cc(C)ncc1C(=O)Nc1nnc(OC[C@H]2CC[C@H](OC(F)F)CC2)s1 [Example 159, 2′-chloro-N-(5-(((1r,4r)-4-(difluoromethoxy)cyclohexyl)methoxy)-1,3,4-thiadiazol-2-yl)-5′-methoxy-6-methyl-(4,4′-bipyridine)-3-carboxamide]
≤ 200	COc1cnc(Cl)cc1-c1cc(C)ncc1C(=O)Nc1nnc(OCC2(C)COC2)s1 [Example 162, 2′-chloro-5′-methoxy-6-methyl-N-(5-((3-methyloxetan-3-yl)methoxy)-1,3,4-thiadiazol-2-yl)-(4,4′-bipyridine)-3-carboxamide]
≤ 200	COc1cnc(Cl)cc1-c1cc(C)ncc1C(=O)Nc1nnc(OCC23CC(C(C)(C)F)(C2)C3)s1 [Example 163, 2′-chloro-N-(5-((3-(2-fluoropropan-2-yl)bicyclo(1.1.1)pentan-1-yl)methoxy)-1,3,4-thiadiazol-2-yl)-5′-methoxy-6-methyl-(4,4′-bipyridine)-3-carboxamide]
≤ 200	COc1cnc(Cl)cc1-c1cc(C)ncc1C(=O)Nc1nnc(OCC2COC2)s1 [Example 164, 2′-chloro-5′-methoxy-6-methyl-N-(5-(oxetan-3-ylmethoxy)-1,3,4-thiadiazol-2-yl)-(4,4′-bipyridine)-3-carboxamide]
≤ 200	COc1cnc(Cl)cc1-c1cc(C)ncc1C(=O)Nc1nnc(OCC2CS(=O)(=O)C2)s1 [Example 166, 2′-chloro-N-(5-((1,1-dioxidothietan-3-yl)methoxy)-1,3,4-thiadiazol-2-yl)-5′-methoxy-6-methyl-(4,4′-bipyridine)-3-carboxamide]
≤ 200	COc1cnc(Cl)cc1-c1cc(C)ncc1C(=O)Nc1nnc(OCC2CC3(COC3)C2)s1 [Example 172, N-(5-((2-oxaspiro(3.3)heptan-6-yl)methoxy)-1,3,4-thiadiazol-2-yl)-2′-chloro-5′-methoxy-6-methyl-(4,4′-bipyridine)-3-carboxamide]
1000 to 10000	COc1cnc(Cl)cc1-c1cc(C)ncc1C(=O)Nc1nnc(OCC2CNC2)s1 [Example 173, N-(5-(azetidin-3-ylmethoxy)-1,3,4-thiadiazol-2-yl)-2′-chloro-5′-methoxy-6-methyl-(4,4′-bipyridine)-3-carboxamide]
≤ 200	COc1cnc(Cl)cc1-c1cc(C)ncc1C(=O)Nc1nnc(OCC2CCNCC2)s1 [Example 174, 2′-chloro-5′-methoxy-6-methyl-N-(5-(piperidin-4-ylmethoxy)-1,3,4-thiadiazol-2-yl)-(4,4′-bipyridine)-3-carboxamide]
200 to 500	COc1cnc(Cl)cc1-c1cc(C)ncc1C(=O)Nc1nnc(OCC2CCN(C)C2)s1 (centres unmarked) [Example 176, 2′-chloro-5′-methoxy-6-methyl-N-(5-((1-methylpyrrolidin-3-yl)methoxy)-1,3,4-thiadiazol-2-yl)-(4,4′-bipyridine)-3-carboxamide]
≤ 200	COc1cnc(Cl)cc1-c1cc(C)ncc1C(=O)Nc1nnc(OCC2CCOC2C)s1 (centres unmarked) [Example 177, 2′-chloro-5′-methoxy-6-methyl-N-(5-((2-methyltetrahydrofuran-3-yl)methoxy)-1,3,4-thiadiazol-2-yl)-(4,4′-bipyridine)-3-carboxamide]
200 to 500	COc1cnc(Cl)cc1-c1cc(C)ncc1C(=O)Nc1nnc(OCC2CCN(C)CC2)s1 [Example 178, 2′-chloro-5′-methoxy-6-methyl-N-(5-((1-methylpiperidin-4-yl)methoxy)-1,3,4-thiadiazol-2-yl)-(4,4′-bipyridine)-3-carboxamide]
≤ 200	COc1cnc(Cl)c(F)c1-c1cc(C)ncc1C(=O)Nc1nnc(OCC23CC(O)(C2)C3)s1 [Example 185, 2′-chloro-3′-fluoro-N-(5-((3-hydroxybicyclo(1.1.1)pentan-1-yl)methoxy)-1,3,4-thiadiazol-2-yl)-5′-methoxy-6-methyl-(4,4′-bipyridine)-3-carboxamide]
≤ 200	COc1cnc(Cl)cc1-c1cc(C)ncc1C(=O)Nc1nnc(OC[C@@H]2COCCO2)s1 [Example 186, (S)—N-(5-((1,4-dioxan-2-yl)methoxy)-1,3,4-thiadiazol-2-yl)-2′-chloro-5′-methoxy-6-methyl-(4,4′-bipyridine)-3-carboxamide]
≤ 200	COc1cnc(Cl)cc1-c1cc(C)ncc1C(=O)Nc1nnc(OC[C@H]2COCCO2)s1 [Example 187, (R)—N-(5-((1,4-dioxan-2-yl)methoxy)-1,3,4-thiadiazol-2-yl)-2′-chloro-5′-methoxy-6-methyl-(4,4′-bipyridine)-3-carboxamide]
1000 to 10000	COc1ccccc1-c1cnccc1C(=O)Nc1nnc(OCCC2(C#N)CC2)s1 [Example 192, N-(5-(2-(1-cyanocyclopropyl)ethoxy)-1,3,4-thiadiazol-2-yl)-3-(2-methoxyphenyl)pyridine-4-carboxamide]
≤ 200	COc1cnc(Cl)cc1-c1cc(C)ncc1C(=O)Nc1nnc(OC[C@H]2C[C@@H](O)C2)s1 [Example 193, 2′-chloro-N-(5-(((1s,3s)-3-hydroxycyclobutyl)methoxy)-1,3,4-thiadiazol-2-yl)-5′-methoxy-6-methyl-(4,4′-bipyridine)-3-carboxamide]

same assay, conditions: Polθ (1-899) 10 nM, 100 μM ATP, 300 nM dT50 ssDNA; value printed as bound; read-out: ATPase NADH coupling:Standard Screening:hPolQ IC50

IC50 [nM]	Structure (SMILES)
> 10000	O=C(Nc1nnc(OCC2CCOCC2)s1)c1cccnc1N1CCOCC1 [Example 157, 2-morpholino-N-(5-((tetrahydro-2H-pyran-4-yl)methoxy)-1,3,4-thiadiazol-2-yl)nicotinamide]
